# What was measured:
# PI3Kδ = PI3Kδ (Homo sapiens, UniProt O00329); assay: Kinase activity assay, PI3Kδ
# Kdr = Kdr (Homo sapiens, UniProt P35968); assay: Kinase activity assay, Kdr
# Fms = Fms (Homo sapiens, UniProt P07333); assay: Kinase activity assay, Fms
# Src = Src (Homo sapiens, UniProt P12931); assay: Kinase activity assay, Src
# PI3Kα = PI3Kα (Homo sapiens, UniProt P42336); assay: Kinase activity assay, PI3Kα
# B-Raf V600E = B-Raf V600E (Homo sapiens, UniProt P15056, V600E); assay: Kinase activity assay, B-Raf V600E; type: biochemical; settings: read-out: activity toward kinase B-Raf V600E, IC50
# B-Raf V600E, sequence (P15056 whole entry V600E): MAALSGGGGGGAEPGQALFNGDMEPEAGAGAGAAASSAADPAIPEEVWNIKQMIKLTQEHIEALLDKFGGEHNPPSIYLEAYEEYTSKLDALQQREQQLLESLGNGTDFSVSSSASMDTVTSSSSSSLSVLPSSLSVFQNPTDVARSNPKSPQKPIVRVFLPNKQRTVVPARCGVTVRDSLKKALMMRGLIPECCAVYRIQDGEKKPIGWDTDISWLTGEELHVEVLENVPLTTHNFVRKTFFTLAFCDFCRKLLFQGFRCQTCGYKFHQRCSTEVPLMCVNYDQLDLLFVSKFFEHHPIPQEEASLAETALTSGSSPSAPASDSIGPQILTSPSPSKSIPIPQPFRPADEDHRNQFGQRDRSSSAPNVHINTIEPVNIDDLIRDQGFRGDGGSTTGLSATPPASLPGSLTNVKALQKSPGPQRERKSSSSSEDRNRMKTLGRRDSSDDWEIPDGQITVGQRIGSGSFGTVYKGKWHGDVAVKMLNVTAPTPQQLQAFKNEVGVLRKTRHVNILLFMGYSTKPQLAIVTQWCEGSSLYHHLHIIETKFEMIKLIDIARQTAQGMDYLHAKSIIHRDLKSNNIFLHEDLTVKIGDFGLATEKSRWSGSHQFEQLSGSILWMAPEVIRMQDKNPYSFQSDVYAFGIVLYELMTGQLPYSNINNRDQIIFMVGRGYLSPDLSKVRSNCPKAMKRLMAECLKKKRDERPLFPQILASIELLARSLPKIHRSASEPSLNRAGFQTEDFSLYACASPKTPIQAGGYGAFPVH
# Kit = Kit (Homo sapiens, UniProt P10721); assay: Kinase activity assay, Kit
# B-Raf = B-Raf (Homo sapiens, UniProt P15056); assay: Kinase activity assay, B-Raf; type: biochemical; settings: read-out: activity toward kinase B-Raf, IC50
# B-Raf, sequence (P15056 whole entry): as the sequence (P15056 whole entry V600E) above, with E600V counted along it
# C-Raf = C-Raf (Homo sapiens, UniProt P04049); assay: Kinase activity assay, C-Raf
# C-Raf, sequence (P04049 whole entry): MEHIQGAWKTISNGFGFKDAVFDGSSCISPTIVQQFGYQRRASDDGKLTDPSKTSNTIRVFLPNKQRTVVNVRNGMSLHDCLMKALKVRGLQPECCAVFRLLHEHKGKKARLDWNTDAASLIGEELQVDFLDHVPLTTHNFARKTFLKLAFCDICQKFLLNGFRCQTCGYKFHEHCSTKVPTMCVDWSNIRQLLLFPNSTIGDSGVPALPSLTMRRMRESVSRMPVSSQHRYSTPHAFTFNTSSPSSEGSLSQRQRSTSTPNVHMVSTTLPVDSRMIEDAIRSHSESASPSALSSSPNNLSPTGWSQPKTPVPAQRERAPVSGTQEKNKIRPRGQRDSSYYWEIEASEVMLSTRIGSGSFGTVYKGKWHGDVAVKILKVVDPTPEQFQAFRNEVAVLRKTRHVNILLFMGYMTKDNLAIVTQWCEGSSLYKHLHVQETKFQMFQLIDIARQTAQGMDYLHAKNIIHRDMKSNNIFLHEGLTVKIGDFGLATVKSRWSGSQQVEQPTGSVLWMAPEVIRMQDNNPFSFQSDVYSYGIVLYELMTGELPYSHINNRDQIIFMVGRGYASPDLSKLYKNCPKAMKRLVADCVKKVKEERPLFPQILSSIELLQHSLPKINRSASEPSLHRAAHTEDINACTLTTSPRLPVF
# PI3Kγ = PI3Kγ (Homo sapiens, UniProt P48736); assay: Kinase activity assay, PI3Kγ
# A-Raf = target: T1, A-Raf (Homo sapiens, UniProt P10398); assay: Kinase activity assay, A-Raf
# T1 sequence (P10398 1-606): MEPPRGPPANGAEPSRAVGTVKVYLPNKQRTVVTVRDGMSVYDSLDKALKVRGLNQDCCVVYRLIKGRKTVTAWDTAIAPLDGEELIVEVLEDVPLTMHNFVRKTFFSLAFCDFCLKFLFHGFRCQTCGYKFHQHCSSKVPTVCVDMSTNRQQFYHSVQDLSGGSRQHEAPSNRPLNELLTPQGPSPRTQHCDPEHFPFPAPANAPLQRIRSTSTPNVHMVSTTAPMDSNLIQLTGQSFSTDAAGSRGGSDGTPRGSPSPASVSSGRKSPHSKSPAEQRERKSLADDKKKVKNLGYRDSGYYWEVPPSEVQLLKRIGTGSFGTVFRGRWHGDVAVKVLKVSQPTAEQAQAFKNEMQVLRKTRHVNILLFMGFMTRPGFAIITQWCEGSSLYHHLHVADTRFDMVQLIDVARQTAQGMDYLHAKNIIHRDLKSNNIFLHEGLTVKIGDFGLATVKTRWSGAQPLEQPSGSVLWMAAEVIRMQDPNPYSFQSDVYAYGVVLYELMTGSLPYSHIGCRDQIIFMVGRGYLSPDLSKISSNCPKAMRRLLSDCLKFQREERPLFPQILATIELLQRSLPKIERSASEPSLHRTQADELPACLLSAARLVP
# MAP4K4 = MAP4K4 (Homo sapiens, UniProt O95819); assay: Kinase activity assay, MAP4K4
# MAP4K4, sequence (O95819 whole entry): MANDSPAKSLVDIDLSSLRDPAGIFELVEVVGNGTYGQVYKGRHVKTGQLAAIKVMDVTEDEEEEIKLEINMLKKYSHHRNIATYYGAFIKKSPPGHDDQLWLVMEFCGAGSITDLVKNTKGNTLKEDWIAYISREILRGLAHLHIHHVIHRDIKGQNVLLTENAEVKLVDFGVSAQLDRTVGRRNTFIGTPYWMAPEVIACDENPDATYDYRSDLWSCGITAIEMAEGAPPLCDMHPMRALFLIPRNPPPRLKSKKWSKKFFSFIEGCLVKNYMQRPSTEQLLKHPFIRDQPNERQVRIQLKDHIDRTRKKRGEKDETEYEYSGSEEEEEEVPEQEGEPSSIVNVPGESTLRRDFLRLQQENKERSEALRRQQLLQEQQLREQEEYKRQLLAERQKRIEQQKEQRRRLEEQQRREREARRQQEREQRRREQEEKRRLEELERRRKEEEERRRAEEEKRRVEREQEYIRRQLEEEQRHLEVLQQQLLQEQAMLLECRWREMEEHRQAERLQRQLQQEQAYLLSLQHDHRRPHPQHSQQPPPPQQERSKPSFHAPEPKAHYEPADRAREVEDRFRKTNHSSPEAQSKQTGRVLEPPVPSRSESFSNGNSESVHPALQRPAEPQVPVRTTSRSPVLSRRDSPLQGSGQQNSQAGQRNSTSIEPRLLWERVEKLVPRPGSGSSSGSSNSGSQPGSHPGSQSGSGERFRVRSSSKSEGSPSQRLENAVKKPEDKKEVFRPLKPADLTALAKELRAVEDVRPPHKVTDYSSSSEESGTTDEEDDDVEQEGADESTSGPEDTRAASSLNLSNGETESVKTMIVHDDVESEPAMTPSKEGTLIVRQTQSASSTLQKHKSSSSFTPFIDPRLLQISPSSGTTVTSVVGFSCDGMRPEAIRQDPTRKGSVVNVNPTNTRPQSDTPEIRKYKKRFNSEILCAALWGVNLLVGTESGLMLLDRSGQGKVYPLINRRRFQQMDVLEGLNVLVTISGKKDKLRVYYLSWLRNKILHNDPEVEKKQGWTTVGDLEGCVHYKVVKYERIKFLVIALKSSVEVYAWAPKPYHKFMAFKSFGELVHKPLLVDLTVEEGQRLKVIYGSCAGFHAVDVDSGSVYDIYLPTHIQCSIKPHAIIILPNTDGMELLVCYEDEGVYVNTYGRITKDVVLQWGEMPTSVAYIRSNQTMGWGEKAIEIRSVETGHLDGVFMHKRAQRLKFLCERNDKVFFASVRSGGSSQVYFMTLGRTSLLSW
# Btk = Btk (Homo sapiens, UniProt Q06187); assay: Kinase activity assay, Btk
# TEC = target: T2, TEC (Homo sapiens, UniProt P42680); assay: Kinase activity assay, TEC
# T2 sequence (P42680 1-631): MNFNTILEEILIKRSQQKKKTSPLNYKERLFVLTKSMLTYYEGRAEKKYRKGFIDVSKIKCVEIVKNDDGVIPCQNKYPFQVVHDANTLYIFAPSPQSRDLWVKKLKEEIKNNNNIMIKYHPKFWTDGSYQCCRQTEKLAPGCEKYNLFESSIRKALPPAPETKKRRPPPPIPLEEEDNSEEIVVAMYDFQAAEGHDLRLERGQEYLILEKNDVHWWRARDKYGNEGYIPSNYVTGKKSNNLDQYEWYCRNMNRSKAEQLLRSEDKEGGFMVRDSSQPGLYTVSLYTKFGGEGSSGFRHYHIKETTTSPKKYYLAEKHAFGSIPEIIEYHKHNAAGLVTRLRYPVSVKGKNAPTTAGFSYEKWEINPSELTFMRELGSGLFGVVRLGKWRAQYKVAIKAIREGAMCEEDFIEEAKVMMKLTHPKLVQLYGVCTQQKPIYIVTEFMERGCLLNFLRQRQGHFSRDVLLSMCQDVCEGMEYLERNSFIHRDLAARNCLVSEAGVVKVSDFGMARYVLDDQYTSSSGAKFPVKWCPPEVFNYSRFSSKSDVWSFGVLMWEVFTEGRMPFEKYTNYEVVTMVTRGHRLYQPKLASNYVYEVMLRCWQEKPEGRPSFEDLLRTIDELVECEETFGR
# TrkA = TrkA (Homo sapiens, UniProt P04629); assay: Kinase activity assay, TrkA
# Flt1 = Flt1 (Homo sapiens, UniProt P17948); assay: Kinase activity assay, Flt1
# [1] = Intrinsic dissolution rate in simulated intestinal fluid (SIF); type: physicochemical; settings: pellet, 310 nm, versus form 2 polymorph free base
# Description: (§1) The intrinsic dissolution rate of a similarly prepared substantially amorphous arginine complex of P-1167 was compared to that of the form 2 polymorph in simulated gastric fluid (SGF) without enzyme and in simulated intestinal fluid (SIF). A pellet of test sample was dissolved in the appropriate fluid, and the UV absorbance as a function of time was measured at 254 nm (SGF) or 310 nm (SIF) and plotted. […] As such, significant improvement of dissolution of the arginine complex is shown, which is likely to be improved further by processing the complex to a completely amorphous form.
# [2] = Intrinsic dissolution rate in simulated gastric fluid (SGF) without enzyme; type: physicochemical; settings: pellet, 254 nm
# Description: as §1
# [3] = Rat PK study of P-1496 free base, arginine and lysine complex; type: in vivo, Sprague-Dawley rats; parameters: AUC∞/dose: unit not given here; settings: for AUC∞/dose / Cmax/dose: Table 10B, rats; for biopharmaceutical properties, comparison in words: rat PK, relative to P-1496 free base
# Description: A PK study was carried out in Sprague-Dawley rats on the arginine or lysine complex of propane-1-sulfonic acid {2,4-difluoro-3-[5-(2-methoxy-pyrimidin-5-yl)-1H-pyrrolo[2,3-b]pyridine-3-carbonyl]-phenyl}-amide P-1496 (Murigenics, Berkeley, Calif.), dosing via […], with sampling of approximately 250 μL of blood via jugular veing in Lithium heparin tubes at 30 minutes, 1, 3, 6, 8, 12, 24, 36 and 48 hours. Blood samples were centrifuged at 4° C. for 10 minutes at RCF of 1,000, plasma was stored at […] and shipped frozen for analytical analysis (Integrated Analytical Solutions, Inc., Berkeley, Calif.).
# Solid formulations were taken up in PEG400:water at 200 mg/cc for free base, arginine, and lysine complexes, and also at 400 mg/cc for lysine complex and dosed by oral gavage 10 mL/kg to provide the P-1496 doses indicated in Table 10B.
# [4] = Polymorph stability of P-1167 forms 1 and 2; type: physicochemical; settings: P-1167 form 1 versus form 2
# Excerpt: Propane-1-sulfonic acid {3-[5-(4-chloro-phenyl)-1H-pyrrolo[2,3-b]pyridine-3-carbonyl]-2,4-difluoro-phenyl}-amide (P-1167) may be prepared according to methods known in the art, for example, using methods described in U.S. patent application Ser. No. 11/473,347 (see also, PCT publication WO2007002433), the disclosure of which is hereby incorporated by reference. Compound P-1167 can exist in polymorphic forms, for example as polymorphic forms 1 or 2, where such polymorphic forms may be isolated as the substantially pure polymorph. The desired polymorphic form may be prepared, for example, by using appropriate crystallization conditions. For example, Form 1 was isolated by recrystallization from acetone/absolute ethanol (e.g. 1:1 to 5:1, preferably 2:1 by volume). […] The substantially pure isolated polymorphic forms were characterized by X-Ray Powder Diffraction (XRPD), differential scanning calorimetry (DSC) and infrared spectroscopy.
# [5] = dose 100, in PEG400:water by oral gavage 10 mL/kg
# [6] = dose 200, in PEG400:water by oral gavage 10 mL/kg
# Src, sequence (P12931 whole entry): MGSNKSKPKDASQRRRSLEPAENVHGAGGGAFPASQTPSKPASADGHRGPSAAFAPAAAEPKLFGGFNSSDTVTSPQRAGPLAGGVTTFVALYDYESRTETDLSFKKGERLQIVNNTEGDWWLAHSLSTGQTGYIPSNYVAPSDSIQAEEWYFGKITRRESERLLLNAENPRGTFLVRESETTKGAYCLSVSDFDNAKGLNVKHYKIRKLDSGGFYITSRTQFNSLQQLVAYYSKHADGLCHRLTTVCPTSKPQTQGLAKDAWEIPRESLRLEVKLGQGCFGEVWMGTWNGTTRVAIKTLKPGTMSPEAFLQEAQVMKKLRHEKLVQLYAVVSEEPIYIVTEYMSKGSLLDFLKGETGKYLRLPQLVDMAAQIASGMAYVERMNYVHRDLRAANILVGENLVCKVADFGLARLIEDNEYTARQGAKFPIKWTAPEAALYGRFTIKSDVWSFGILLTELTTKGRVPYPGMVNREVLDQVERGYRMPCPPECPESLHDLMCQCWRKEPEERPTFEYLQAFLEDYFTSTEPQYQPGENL
# Kdr, sequence (P35968 20-1356): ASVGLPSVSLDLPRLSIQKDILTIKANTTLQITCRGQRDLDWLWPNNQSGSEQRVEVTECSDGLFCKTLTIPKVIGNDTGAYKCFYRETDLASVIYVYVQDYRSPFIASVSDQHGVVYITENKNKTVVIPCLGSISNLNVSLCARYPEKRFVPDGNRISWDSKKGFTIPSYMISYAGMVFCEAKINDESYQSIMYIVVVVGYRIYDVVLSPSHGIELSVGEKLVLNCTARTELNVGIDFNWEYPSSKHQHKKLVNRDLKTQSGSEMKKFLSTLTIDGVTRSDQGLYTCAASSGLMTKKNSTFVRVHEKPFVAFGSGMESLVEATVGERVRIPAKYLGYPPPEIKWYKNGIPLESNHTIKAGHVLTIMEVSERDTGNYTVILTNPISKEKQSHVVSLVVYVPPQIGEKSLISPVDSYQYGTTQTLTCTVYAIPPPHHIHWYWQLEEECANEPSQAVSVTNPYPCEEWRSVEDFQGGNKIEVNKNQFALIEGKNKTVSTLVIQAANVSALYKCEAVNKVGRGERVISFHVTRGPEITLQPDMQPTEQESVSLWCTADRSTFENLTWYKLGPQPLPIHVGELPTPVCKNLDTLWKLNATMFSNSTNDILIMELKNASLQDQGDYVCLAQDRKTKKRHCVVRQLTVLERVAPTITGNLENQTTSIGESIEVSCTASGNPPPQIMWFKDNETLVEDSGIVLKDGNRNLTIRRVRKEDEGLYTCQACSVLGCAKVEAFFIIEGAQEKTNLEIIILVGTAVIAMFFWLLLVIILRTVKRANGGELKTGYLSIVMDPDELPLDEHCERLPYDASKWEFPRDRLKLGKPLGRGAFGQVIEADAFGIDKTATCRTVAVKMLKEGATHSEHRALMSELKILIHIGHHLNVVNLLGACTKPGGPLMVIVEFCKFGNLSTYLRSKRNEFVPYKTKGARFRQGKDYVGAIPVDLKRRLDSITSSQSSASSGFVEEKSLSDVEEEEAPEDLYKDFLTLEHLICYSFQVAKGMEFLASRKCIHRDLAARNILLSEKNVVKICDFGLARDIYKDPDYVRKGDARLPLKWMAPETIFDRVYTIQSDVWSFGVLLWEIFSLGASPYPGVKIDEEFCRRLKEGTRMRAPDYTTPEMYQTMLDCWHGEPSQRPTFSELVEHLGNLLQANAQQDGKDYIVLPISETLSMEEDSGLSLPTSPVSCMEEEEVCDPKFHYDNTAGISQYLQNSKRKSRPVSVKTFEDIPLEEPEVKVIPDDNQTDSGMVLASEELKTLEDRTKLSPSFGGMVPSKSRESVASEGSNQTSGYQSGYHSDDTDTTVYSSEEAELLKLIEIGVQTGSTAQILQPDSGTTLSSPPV
SMILES,IC50 (Kdr) [µM],IC50 (Src) [µM],IC50 (PI3Kα) [µM],IC50 (B-Raf V600E) [µM],IC50 (Kit) [µM],IC50 (B-Raf) [µM],IC50 (C-Raf) [µM],IC50 (PI3Kγ) [µM],IC50 (MAP4K4) [µM],"AUC∞/dose [3, 5]","Cmax/dose [3, 5]",also measured
"CCCS(=O)(=O)Nc1ccc(F)c(C(=O)c2c[nH]c3ncc(-c4cccc(S(=O)(=O)NC)c4)cc23)c1F [P-2170, 3-{3-[2,6-Difluoro-3-(propane-1-sulfonylamino)-benzoyl]-1H-pyrrolo[2,3-b]pyridin-5-yl}-N-methyl-benzenesulfonamide]",≤ 10,≤ 10,≤ 10,≤ 10,≤ 10,–,–,–,–,–,–,IC50 (PI3Kδ): ≤ 10 µM; IC50 (Fms): ≤ 10 µM
"CCCS(=O)(=O)Nc1ccc(F)c(C(=O)c2c[nH]c3ncc(-c4ccc(C(N)=O)nc4)cc23)c1F [P-2220, 5-{3-[2,6-Difluoro-3-(propane-1-sulfonylamino)-benzoyl]-1H-pyrrolo[2,3-b]pyridin-5-yl}-pyridine-2-carboxylic acid amide]",≤ 10,≤ 10,≤ 10,≤ 10,≤ 10,≤ 10,≤ 10,≤ 10,≤ 10,–,–,IC50 (A-Raf): ≤ 10 µM
"Cn1cc(-c2cnc3[nH]cc(C(=O)c4cc(NS(=O)(=O)c5cccc(F)c5)ccc4F)c3c2)cn1 [P-2105, 3-Fluoro-N-{4-fluoro-3-[5-(1-methyl-1H-pyrazol-4-yl)-1H-pyrrolo[2,3-b]pyridine-3-carbonyl]-phenyl}-benzenesulfonamide]",≤ 10,≤ 10,–,≤ 10,≤ 10,≤ 10,≤ 10,–,≤ 10,–,–,IC50 (Fms): ≤ 10 µM; IC50 (Btk): ≤ 10 µM; IC50 (TEC): ≤ 10 µM; IC50 (TrkA): ≤ 10 µM; IC50 (Flt1): ≤ 10 µM
"CCCS(=O)(=O)Nc1ccc(F)c(C(=O)c2c[nH]c3ncc(-c4ccc(Cl)cc4)cc23)c1F [arginine complex of P-1167, propane-1-sulfonic acid {3-[5-(4-chloro-phenyl)-1H-pyrrolo[2,3-b]pyridine-3-carbonyl]-2,4-difluoro-phenyl}-amide]",–,–,–,–,–,–,–,–,–,–,–,UV absorbance in SIF (dissolution) [1]: substantially higher absorbance in SIF than the free base; time of maximum absorbance in SGF [2]: approximately 200 minutes; maximum UV absorbance in SGF (dissolution) ([2]; versus form 2 polymorph free base): substantially greater than the free base
"CCCS(=O)(=O)Nc1ccc(F)c(C(=O)c2c[nH]c3ncc(-c4cnc(OC)nc4)cc23)c1F [P-1496 free base, Propane-1-sulfonic acid {2,4-difluoro-3-[5-(2-methoxy-pyrimidin-5-yl)-1H-pyrrolo[2,3-b]pyridine-3-carbonyl]-phenyl}-amide]",–,–,–,–,–,–,–,–,–,"1,970",106 (ng/mL)/(mg/kg),–
"CCCS(=O)(=O)Nc1cccc(C(=O)c2c[nH]c3ncc(-c4cnc(OC)nc4)cc23)c1F [P-2407, Propane-1-sulfonic acid {2-fluoro-3-[5-(2-methoxy-pyrimidin-5-yl)-1H-pyrrolo[2,3-b]pyridine-3-carbonyl]-phenyl}-amide]",–,–,≤ 10,≤ 10,–,≤ 10,≤ 10,≤ 10,≤ 10,–,–,IC50 (TrkA): ≤ 10 µM; IC50 (A-Raf): ≤ 10 µM
CCCS(=O)(=O)Nc1ccc(F)c(C(=O)c2c[nH]c3ncc(-c4cncc(S(C)(=O)=O)c4)cc23)c1F [P-2188],≤ 10,–,≤ 10,≤ 10,–,≤ 10,–,≤ 10,–,–,–,IC50 (PI3Kδ): ≤ 10 µM
"CCCS(=O)(=O)Nc1ccc(F)c(C(=O)c2c[nH]c3ncc(-c4cnc(OC)nc4)cc23)c1F [P-1496 lysine complex, propane-1-sulfonic acid {2,4-difluoro-3-[5-(2-methoxy-pyrimidin-5-yl)-1H-pyrrolo[2,3-b]pyridine-3-carbonyl]-phenyl}-amide]",–,–,–,–,–,–,–,–,–,"3,210",283 (ng/mL)/(mg/kg),"AUC∞/dose [3, 6]: 2,750; Cmax/dose [3, 6]: 155 (ng/mL)/(mg/kg); biopharmaceutical properties, comparison in words [3]: improved biopharmaceutical properties"
"CCCS(=O)(=O)Nc1ccc(F)c(C(=O)c2c[nH]c3ncc(-c4ccc(Cl)cc4)cc23)c1F [P-1167 Form 2, Propane-1-sulfonic acid {3-[5-(4-chloro-phenyl)-1H-pyrrolo[2,3-b]pyridine-3-carbonyl]-2,4-difluoro-phenyl}-amide]",–,–,–,–,–,–,–,–,–,–,–,relative stability of polymorphic forms [4]: more stable polymorph
"CCCS(=O)(=O)Nc1ccc(F)c(C(=O)c2c[nH]c3ncc(-c4cnc(OC)nc4)cc23)c1F [P-1496 arginine complex, propane-1-sulfonic acid {2,4-difluoro-3-[5-(2-methoxy-pyrimidin-5-yl)-1H-pyrrolo[2,3-b]pyridine-3-carbonyl]-phenyl}-amide]",–,–,–,–,–,–,–,–,–,"3,620",159 (ng/mL)/(mg/kg),"biopharmaceutical properties, comparison in words [3]: improved biopharmaceutical properties"

# Source: patent US20120122860A1, “SOLID FORMS OF SULFONAMIDES AND AMINO ACIDS” (Plexxikon, Inc., priority 2009, published 2012)
